Counter-ions that a name gives are not always drawn.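 Interpolation was linear, between the two tested concentrations surrounding the appropriate level; five concentrations were tested over 48 hours in 96-well plates. TGI is the concentration that stops growth completely.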 *1 amine or outer side, *2 acyl side, *3 side chain or, on linkers, in order; H or OH if unused. Where a SMILES comes first, the peptide text is derived from it. [ ]: non-standard residue; d: D form. The star is where a group is joined. X31 = CC(=O)N(C)SCC(N[*:1])C(=O)[*:2]; X47 = CC(=O)N(C)SCC(N*)/C(O)=N\O; Cbz = O=C(OCc1ccccc1)*; Boc = CC(C)(C)OC(=O)*; Tfa = O=C(C(F)(F)F)*; Bz = O=C(c1ccccc1)*; Bn = c1ccc(C*)cc1; For = O=C*
What was measured:
Assay in all cases: NCI anticancer screen, dose series, 48 h
HCT-116 colon = test system: HCT-116 colon
MCF7 breast = test system: MCF7 breast
KM12 colon = test system: KM12 colon
786-0 renal = test system: 786-0 renal
HS 578T breast = test system: HS 578T breast
T-47D breast = test system: T-47D breast
HCC-2998 colon = test system: HCC-2998 colon
COLO 205 colon = test system: COLO 205 colon
SK-MEL-28 melanoma = test system: SK-MEL-28 melanoma
UO-31 renal = test system: UO-31 renal
M14 melanoma = test system: M14 melanoma
A498 renal = test system: A498 renal
IGROV1 ovarian = test system: IGROV1 ovarian
MDA-MB-435 = test system: MDA-MB-435
NCI-H522 lung = test system: NCI-H522 lung
OVCAR-8 ovarian = test system: OVCAR-8 ovarian
SN12C renal = test system: SN12C renal
MDA-N = test system: MDA-N
PC-3 prostate = test system: PC-3 prostate
SR leukemia = test system: SR leukemia

| SMILES | TGI (HCT-116 colon) [µM] | TGI (MCF7 breast) [µM] | TGI (KM12 colon) [µM] | TGI (786-0 renal) [µM] | TGI (HS 578T breast) [µM] | TGI (T-47D breast) [µM] | TGI (HCC-2998 colon) [µM] | TGI (COLO 205 colon) [µM] | TGI (SK-MEL-28 melanoma) [µM] | TGI (UO-31 renal) [µM] | TGI (M14 melanoma) [µM] | TGI (A498 renal) [µM] | TGI (IGROV1 ovarian) [µM] | TGI (MDA-MB-435) [µM] | TGI (NCI-H522 lung) [µM] | TGI (OVCAR-8 ovarian) [µM] | TGI (SN12C renal) [µM] | TGI (MDA-N) [µM] | TGI (PC-3 prostate) [µM] | TGI (SR leukemia) [µM] |
| --- | --- | --- | --- | --- | --- | --- | --- | --- | --- | --- | --- | --- | --- | --- | --- | --- | --- | --- | --- | --- |
| CC(=N\N)/C(C)=N/N=C(C)/C(C)=N/N=C(C)/C(C)=N/N=C(C)/C(C)=N/N | > 100 | > 100 | > 100 | > 100 | > 100 | > 100 | > 100 | > 100 | > 100 | > 100 | > 100 | > 100 | > 100 | > 100 | > 100 | > 100 | > 100 | > 100 | > 100 | – |
| O=C(/C=C1\N=C(c2ccccc2)N(c2nc3ccc(Sc4ccccc4)cc3[nH]2)C1=O)/C=C/c1ccccc1 | > 100 | > 100 | > 100 | > 100 | > 100 | 82.6 | 32.5 | 30.6 | > 100 | > 100 | > 100 | > 100 | > 100 | 33.9 | 58.2 | > 100 | > 100 | 33.6 | > 100 | – |
| COc1ccc(/C=C2\CCC(C)C3=C(c4ccc(OC)c(OC)c4)C(C#N)=C(N)OC32)cc1OC (stereo unspecified) | 20.2 | 19.5 | 66.5 | 25.1 | > 100 | 7.97 | – | 7.74 | 31.7 | 8.4 | 15 | 51.9 | 9.45 | 10.1 | – | > 100 | 28.2 | 12.1 | 38.1 | – |
| CC1(C)[C@H](C(=O)O)N2C(=O)[C@@H](NS(=O)(=O)c3ccc([N+](=O)[O-])cc3)[C@H]2S1(=O)=O | > 100 | > 100 | > 100 | > 100 | > 100 | > 100 | > 100 | > 100 | > 100 | > 100 | > 100 | > 100 | > 100 | > 100 | > 100 | > 100 | > 100 | > 100 | > 100 | – |
| CCOC(=O)c1ccc(Nc2cnc3cc(C(F)(F)F)ccc3n2)cc1 | > 100 | – | > 100 | > 100 | > 100 | > 100 | > 100 | > 100 | > 100 | > 100 | – | > 100 | > 100 | > 100 | > 100 | > 100 | > 100 | > 100 | > 100 | > 100 |
| CC(=O)N(C)SCC(NC(=O)C(Cc1ccccc1)NC(=O)OCc1ccccc1)C(=O)NC(Cc1ccccc1)C(=O)NC(Cc1cn(C=O)c2ccccc12)C(=O)NC(CCCCNC(=O)OCc1ccccc1)C(=O)NC(C(=O)NC(CSN(C)C(C)=O)/C(O)=N\O)C(C)OCc1ccccc1 (stereo unspecified) (Cbz-F[X31]FW(For)K(Cbz)T(Bn)-X47; configuration not given here) | > 100 | > 100 | > 100 | > 100 | > 100 | > 100 | > 100 | > 100 | > 100 | > 100 | > 100 | – | > 100 | > 100 | > 100 | > 100 | > 100 | > 100 | > 100 | > 100 |
| Cc1ccc2c3c1O[C@H]1c4[nH]c5ccccc5c4C[C@@]4(O)[C@@H](C2)N(C)CC[C@]314 | 31 | 30 | 33.8 | 29.8 | 21.5 | – | – | 30.2 | – | 27.1 | 31.1 | 32.3 | 34.9 | 28.3 | 36 | 34.8 | 39.4 | 33.3 | 33.6 | 41.9 |
| CCOC(=O)c1c2c3c(cccc3[nH]c1=O)Sc1ncccc1-2 | > 100 | > 100 | – | > 100 | > 100 | > 100 | > 100 | > 100 | > 100 | 81.5 | > 100 | – | 61 | > 100 | 83.8 | > 100 | > 100 | > 100 | 74.6 | > 100 |
| CC1(C)CC(=O)C(CCC(=O)/C=C/c2ccccc2)C(=O)C1 | > 100 | > 100 | > 100 | > 100 | > 100 | > 100 | > 100 | > 100 | > 100 | > 100 | > 100 | > 100 | > 100 | > 100 | > 100 | > 100 | > 100 | > 100 | > 100 | – |
| CC(=O)OC1=c2ccccc2=C(O)C2C1C=NN2C(C)=O (stereo unspecified) | > 100 | > 100 | > 100 | > 100 | > 100 | > 100 | > 100 | > 100 | > 100 | > 100 | > 100 | > 100 | > 100 | > 100 | > 100 | > 100 | > 100 | > 100 | > 100 | – |
| CCOC(=O)c1cnn2c1ncc1c(=O)n(NC(N)=O)ccc12 | > 100 | > 100 | > 100 | > 100 | > 100 | > 100 | – | > 100 | > 100 | > 100 | > 100 | > 100 | > 100 | > 100 | > 100 | > 100 | > 100 | > 100 | > 100 | – |
| O=C(O)CC(NC(=O)C(F)(F)F)C(=O)NC(Cc1ccc(O)cc1)C(=O)O (stereo not drawn) (Tfa-Asp-Tyr-OH; configuration not given here) | – | > 50 | > 50 | > 50 | > 50 | > 50 | > 50 | > 50 | > 50 | > 50 | > 50 | – | > 50 | > 50 | > 50 | > 50 | > 50 | > 50 | > 50 | > 50 |
| CC(C)(C)OC(=O)NCCCCC(N)C(N)=O (stereo unspecified) | > 100 | > 100 | > 100 | > 100 | > 100 | > 100 | > 100 | > 100 | > 100 | > 100 | > 100 | > 100 | > 100 | > 100 | > 100 | > 100 | > 100 | > 100 | > 100 | – |
| NCC(=O)NC1(c2cc3ccccc3s2)CCCCC1 | > 100 | > 100 | > 100 | > 100 | 99.5 | > 100 | 29 | 32.5 | 39.8 | > 100 | 34 | > 100 | > 100 | > 100 | > 100 | > 100 | > 100 | > 100 | – | 19.2 |
| Cc1ccc(S(=O)(=O)N2CCCN(S(=O)(=O)c3ccc(C)cc3)CCN(S(=O)(=O)c3ccc(C)cc3)CCCSCC2)cc1 | > 100 | > 100 | – | > 100 | > 100 | > 100 | > 100 | > 100 | > 100 | > 100 | > 100 | > 100 | > 100 | > 100 | – | > 100 | > 100 | > 100 | – | – |
| CC(=O)ON(C(C)=O)c1ccc(-c2nc3ccccc3s2)cc1 | > 54.7 | – | 33.2 | > 57.5 | > 88 | > 66.5 | 41.9 | > 53.7 | > 70.8 | 33.2 | 64 | > 67.2 | 36.9 | > 60.3 | 30.7 | > 58 | > 100 | > 77 | > 100 | > 100 |
| O=C1/C(=C/c2ccccc2)CCCC1CN1CCCCC1 (stereo unspecified) | 3.15 | 1.69 | 2.78 | 4.26 | 16.9 | 3.92 | 29 | 10.4 | 3.77 | 3.82 | 3.36 | 30.4 | 8.38 | 4.26 | 2.05 | 4.13 | 18.5 | 4.13 | 24.1 | – |
| CC(NC(=O)C(Cc1ccc(OC(=O)c2ccccc2)cc1)NC(=O)OC(C)(C)C)C(=O)NC(Cc1ccccc1)C(=O)NCC(N)=O (stereo unspecified) (Boc-Y(Bz)AFG-NH2; configuration not given here) | 91.6 | 40.8 | > 100 | 43.5 | 47 | 50.7 | 38.5 | 84.8 | > 100 | 35.2 | 34 | 41.9 | 40.7 | 47.4 | 42.6 | 58.8 | 42 | 79.4 | 37.3 | – |
| CC1=NCCN=C(C)C1N=Nc1ccc2nc(C)[nH]c2c1 | 38 | 30.1 | 30.9 | 33.5 | 57.5 | 47.5 | 41.1 | 53.6 | 24.2 | – | 16.8 | 18 | 70.7 | 22.3 | 61.8 | 85.1 | 30.9 | 29.3 | 22.3 | – |
| COc1cc(C=O)ccc1Oc1nnnn1-c1ccccc1 | > 100 | – | > 100 | > 100 | > 100 | 58 | – | > 100 | > 100 | > 100 | > 100 | – | > 100 | > 100 | > 100 | > 100 | > 100 | > 100 | > 100 | 51.1 |
| O=c1sc2c(s1)SSSSS2 | > 50 | > 50 | > 50 | > 50 | – | > 50 | > 50 | > 50 | > 50 | > 50 | > 50 | > 50 | > 50 | > 50 | > 50 | > 50 | > 50 | > 50 | > 50 | > 50 |
| NC(Cc1ccc(S(=O)(=O)O)cc1)C(=O)NC(CCCCNC(=O)NCCCCC(NC(=O)C(N)Cc1ccc(S(=O)(=O)O)cc1)C(=O)NC(Cc1ccc(S(=O)(=O)O)cc1)C(=O)O)C(=O)NC(Cc1ccc(S(=O)(=O)O)cc1)C(=O)O (stereo unspecified) | > 100 | > 100 | > 100 | > 100 | > 100 | > 100 | > 100 | > 100 | > 100 | > 100 | > 100 | > 100 | > 100 | > 100 | > 100 | > 100 | > 100 | > 100 | > 100 | – |
| COc1cc2c[n+](C)c3c4cc(OC)c(OC)cc4c(OC)cc3c2cc1OC | > 43.6 | > 100 | > 67.1 | > 74.6 | 12.6 | 12.2 | > 52.1 | 4.41 | > 81.9 | > 100 | > 100 | > 100 | – | > 60.4 | 2.03 | 23 | – | > 45.9 | 98.9 | – |
